Source: PubChem BioAssay AID256 (DTP/NCI, 2004)
“And” between values parts separate entries of the source, which are not always exact repeats. Equal values may be shown once. Toxic doses and inconclusive results are not listed. The calls were made as follows: active = survival T/C of 150% or more; inactive = T/C below 125% in these data. Non-standard residues stand in square brackets, D forms with d. Residues, ends and D or L forms follow the SMILES beside them. ξ: configuration not given here. *: point of attachment. Boc = CC(C)(C)OC(=O)*; ξP = O=C(O)C1CCCN1

Tested on: CD2F1 mice, L1210 leukemia ip, survival T/C
Assay: NCI In Vivo Anticancer Drug Screen. Data for tumor model L1210 Leukemia (intraperitoneal) in CD2F1 (CDF1) mice
Conditions: endpoint: mean survival time, higher = longer survival
Method in brief: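 Vehicle-treated tumor-bearing mice served as controls (C) for compound-treated mice (T). Reported figure is T divided by C.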

[1] = dose: 100.0 mg/kg/injection, schedule: Q04DX003 (ip), vehicle: saline
[2] = dose: 200.0 mg/kg/injection, schedule: Q04DX003 (ip), vehicle: saline
[3] = dose: 400.0 mg/kg/injection, schedule: Q04DX003 (ip), vehicle: saline
[4] = dose: 4.0 mg/kg/injection, schedule: Q01DX009 (ip), vehicle: saline
[5] = dose: 200.0 mg/kg/injection, schedule: Q04DX003 (ip), vehicle: saline with Tween-80
[6] = dose: 400.0 mg/kg/injection, schedule: Q01DX009 (ip), vehicle: saline with Tween-80
[7] = dose: 400.0 mg/kg/injection, schedule: Q04DX003 (ip), vehicle: saline with Tween-80
[8] = dose: 100.0 mg/kg/injection, schedule: Q04DX003 (ip), vehicle: saline with Tween-80
[9] = dose: 100.0 mg/kg/injection, schedule: Q01DX009 (ip), vehicle: saline with Tween-80
[10] = dose: 200.0 mg/kg/injection, schedule: Q01DX009 (ip), vehicle: saline with Tween-80
[11] = dose: 50.0 mg/kg/injection, schedule: Q01DX009 (ip), vehicle: saline with Tween-80

Measured: T/C

COC(=O)CNC(=O)C1CCCN1C(=O)OC(C)(C)C (stereo not drawn) (Boc-[ξP]-Gly-OMe)
inactive: [1] 94 % of control | [2] 97 % of control | [3] 107 % of control

Nc1nc(N)c2c(Cl)c(CNc3ccc(C(=O)NC(CC(=O)O)C(=O)O)cc3)ccc2n1 (stereo not drawn)
inactive: dose: 2.0 mg/kg/injection, schedule: Q01DX001 (ip), vehicle: saline 121 % of control | dose: 2.0 mg/kg/injection, schedule: Q01DX009 (oral), vehicle: saline 94 % of control | dose: 2.0 mg/kg/injection, schedule: Q03HX024 (ip), vehicle: saline 101 % of control | dose: 2.0 mg/kg/injection, schedule: Q08DX002 (ip), vehicle: saline 104 % of control | dose: 4.0 mg/kg/injection, schedule: Q01DX001 (oral), vehicle: saline 103 % of control | [4] 120 % of control | dose: 4.0 mg/kg/injection, schedule: Q01DX009 (sc), vehicle: saline 98 % of control | dose: 8.0 mg/kg/injection, schedule: Q01DX009 (oral), vehicle: saline 118 % of control | dose: 8.0 mg/kg/injection, schedule: Q03HX024 (ip), vehicle: saline 95 % of control | dose: 16.0 mg/kg/injection, schedule: Q01DX001 (oral), vehicle: saline 120 % of control | dose: 16.0 mg/kg/injection, schedule: Q01DX009 (ip), vehicle: saline 88 % of control | dose: 16.0 mg/kg/injection, schedule: Q01DX009 (sc), vehicle: saline 87 % of control | dose: 16.0 mg/kg/injection, schedule: Q03HX016 (ip), vehicle: saline 98 % of control | dose: 32.0 mg/kg/injection, schedule: Q01DX009 (oral), vehicle: saline 93 % of control | dose: 512.0 mg/kg/injection, schedule: Q01DX001 (sc), vehicle: saline 96 % of control

CC(=O)[CH-]C(C)=O.O=[N+]([O-])O.[NH-]C1CCCCC1[NH-].[Pt+4] (stereo not drawn)
inactive: dose: 1.25 mg/kg/injection, schedule: Q04DX003 (ip), vehicle: water 95 % of control | dose: 2.5 mg/kg/injection, schedule: Q04DX003 (ip), vehicle: water 98 % of control | dose: 5.0 mg/kg/injection, schedule: Q04DX003 (ip), vehicle: water 98 % of control | dose: 10.0 mg/kg/injection, schedule: Q04DX003 (ip), vehicle: water 110 % of control

Cc1ccc(N2C(=O)CSC2=S)c(Br)c1
inactive: dose: 100.0 mg/kg/injection, schedule: Q01DX001 (ip), vehicle: saline with Tween-80 101 % of control | dose: 200.0 mg/kg/injection, schedule: Q01DX001 (ip), vehicle: saline with Tween-80 101 % of control | dose: 400.0 mg/kg/injection, schedule: Q01DX001 (ip), vehicle: saline with Tween-80 106 % of control

Nc1nnnn1C1CCCCC1
inactive: [5] 106 % of control | [6] 92 % of control | [7] 97 % of control

O=C1C=CC(=O)N1c1cccc(N2C(=O)C=CC2=O)c1
inactive: [4] 96 % of control | dose: 8.0 mg/kg/injection, schedule: Q01DX009 (ip), vehicle: saline 106 % of control

Nc1ncnc(N)c1NC(=O)c1ccc(Cl)c([N+](=O)[O-])c1
inactive: [8] 94 % of control | [5] 93 % of control | [7] 88 % of control

Cc1ccc(C)c(NC(=O)c2cccc(Cl)c2)c1
inactive: [9] 89 % of control | [8] 94 % of control | [10] 94 % of control | [5] 94 % of control | [6] 102 % of control | [7] 94 % of control

CC(=O)C=C(C)[O][Tl]
inactive: dose: 75.0 mg/kg/injection, schedule: Q01DX001 (ip), vehicle: saline 102 % of control

OCC(O)C(O)C(O)C(O)/C=N/O (stereo not drawn)
inactive: [11] 97 % of control | [9] 97 % of control | [10] 104 % of control

N#CCCOCC(COCCC#N)OCCC#N
inactive: dose: 25.0 mg/kg/injection, schedule: Q01DX009 (ip), vehicle: saline with Tween-80 97 % of control and 103 % of control | [11] 98 % of control and 103 % of control | [9] 97 % of control and 110 % of control | [10] 89 % of control and 103 % of control

CCCCCCCC/C=C/CCCCCCCCCCCCBr
inactive: [9] 104 % of control | [1] 98 % of control | [10] 93 % of control | [2] 97 % of control | [6] 103 % of control | [3] 92 % of control
